Usually pIC50 stands for the IC50 on a negative log10 scale, so that one unit is a factor of ten. A word on the GI50: it is the concentration at which growth is held to half of that of the control. A high value points to lower sensitivity of the cells.

One assay addresses B-RAF (Homo sapiens, UniProt P15056). Briefly: Assay A - DELFIA kinase assay. In kind it is biochemical. The settings on record: 100 μM ATP; mean of usually three assays; read-out: Assay A BRAF IC50. On the procedure: Biological Methods—Assay A—DELFIA Kinase Assay
Compounds were assessed by a kinase assay performed according to the following protocol.
The following reagents were prepared:
DELFIA Kinase Buffer (DKB):
DKB1 (DKB with B-RAF and MEK Protein):
Combine 4950 μL of DKB and 50 μL of 2.5 mg/mL GST-MEK stock (to give 1 mg of MEK per 40 μL). Then add 22.5 μL of B-RAF to give ˜0.2 μL of B-RAF per 40 μL.
DKB2 (DKB with MEK Protein):
Combine 4950 μL of DKB and 50 μL of 2.5 mg/mL GST-MEK stock (to give […] of MEK per 40 μL). Use 500 μL of this for the blow out (BO) and the empty vector (EV) control.
100 mM stock, dilute to 500 μM to give 100 μM final concentration in assay.
Inhibitors (Test Compounds):
Phospho-MEK1/2 CST #9121S diluted 1:1000 in DELFIA assay buffer (AB). Pre-incubate antibody in the AB for 30 minutes at room temperature prior to use.
Anti-rabbit-Eur labelled secondary Perkin Elmer #AD0105 diluted 1:1000 in DELFIA assay buffer (AB). Pre-incubate antibody in the AB for 30 minutes at room temperature prior to use. (Primary and secondary antibodies were incubated together.)
DELFIA assay buffer Perkin Elmer #4002-0010.
DELFIA enhancement solution Perkin Elmer #4001-0010.
96 well glutathione-coated black plate Perbio #15340.
1. Preblock wells with 5% milk in TBS for 1 hour.
2. Wash wells 3× with 200 μL TBS.
3. Plate out 40 μL of DKB1 for all inhibitors (test compounds), DMSO control, and optionally other control compounds.
4. Plate out 40 μL of DKB2 for BO and EV wells.
5. Add inhibitors (test compounds) at 0.5 μL per well according to desired plate layout.
6. Add 0.5 μL DMSO to vehicle control wells.
7. Add 2 μL of B-RAF to BO and EV wells.
8. Pre-incubate with inhibitors (test compounds) for 10 minutes at room temperature with shaking.
9. Add 10 μL of 500 μM ATP stock, in DKB, to give 100 μM assay concentration.
10. Seal plates with TopSeal and incubate at room temperature with shaking for 45 minutes.
11. Wash plates 3× with 200 μL 0.1% Tween20/Water to terminate reaction.
12. Add 50 μL per well of antibody mix and incubate for 1 hour at room temperature with shaking.
13. Wash plates 3× with 200 μL 0.1% Tween20/Water.
14. Add 100 μL DELFIA enhancement solution per well, cover in foil, and incubate at room temperature for 30 minutes with shaking.
15. Read on Victor using Europium protocol.
(§1) Values for the blank (Empty Vector) are subtracted from all values. The DMSO controls are set as 100% activity and assay points (the response) are calculated as a percentage of the DMSO control. Data are plotted using Graphpad Prism software and a non-linear regression line is calculated using a variable slope sigmoidal dose-response equation: Y=Bottom+[Top−Bottom]/[1+10^((Log EC50−X)*HillSlope)] where X is the logarithm of concentration and Y is the response. The IC50 generated by this procedure is the concentration of the drug that produces a percentage control fluorescence value midway between the saturation, and zero-effect plateaus. Three independent assays are usually performed and the mean IC50 is reported. Biological Methods—Assay B—Cell Based Phosho-ERK Assay

The test system of assay [1] is SW620 colorectal carcinoma cell line (mutant RAS). Nature of the assay: Assay C - SRB cell proliferation assay, SW620. The settings on record: Homo sapiens, SW-620, 120 h; SW620, 5 days growth. In kind it is cell-based. On the procedure: as §1, with “blank (no cells)” for “blank (Empty Vector)”, “the response).” for “the response.”, “Methods—Assay C—SRB Cell Proliferation” for “Methods—Assay B—Cell Based Phosho-ERK”, “Assay (SRB GI50)” for “Assay”
Cell lines (e.g., WM266.4 and A375M melanoma cell lines; SW620 colorectal carcinoma cell line) are routinely cultured in DMEM or RPMI1640 supplemented with 10% foetal bovine serum, at 37° C., in 10% CO2 water saturated atmosphere. Cultures are maintained in exponential growth phase by sub-culturing before having become confluent (3-5 day intervals). Single cell suspensions are prepared by harvesting an 80 cm^2 tissue culture flask with 5 mL commercial trypsin EDTA. After 5 minutes, the detached cells are mixed with 5 mL fully complemented culture medium and centrifugally pelleted (1000 rpm for 7 minutes). After aspirating the supernatant, the cell pellet is re-suspended in 10 mL fresh medium and the cells fully disaggregated by drawing the whole volume up/down 5 times through a 19-gauge needle. The concentration of the cells is determined using a haemocytometer ( 1/10 dilution). A suitable volume to give at least a 2-fold excess for the number of tests being conducted, typically 100-200 mL, is prepared by diluting the cell suspension to 10,000-40,000/mL, and 100 μL/well dispensed into 96 well plates using a programmable 8-channel peristaltic pump, giving 1000-4000 cells/well, leaving column 12 blank. The plates are returned to the incubator for 24 hours to allow the cells to re-attach.
The compounds being tested are prepared at 10 mM in DMSO. Aliquots (24 μL) are diluted into 1.2 mL culture medium giving 200 μM, and 10 serial dilutions of 3× performed by transferring 80 μL to 160 μL. Aliquots (100 μL) of each dilution are added to the wells, using an 8-channel pipettor, thus performing a final further 2× dilution, and giving doses ranging from 100 μM to 0.005 μM. Column 11 receives plain culture medium only. Each compound is tested in quadruplicate, each replicate being the average of four wells.
After a further 5 days growth, the plates are emptied, and the cells are fixed in 10% trichloroacteic acid for 30 minutes at 4° C. After thorough rinsing in running tap water, the plates are dried, and stained by adding 50 μL of a solution of 0.1% sulphorhodamine-B in 1% acetic acid, for 10 minutes at room temperature. The stain is poured out and the plates thoroughly rinsed under a stream of 1% acetic acid, thus removing unbound stain, and dried. The bound stain is taken into solution by addition of 100 μL Tris buffer pH 8, followed by 10 minutes on a plate-shaker (approximately 500 rpm). The absorbance at 540 nm in each well (being proportional to the number of cells present) is determined using a plate reader.
After averaging the blank values in column 12 this was subtracted from all values, and results expressed as a percentage of the untreated value (column 11). […] The GI50 generated by this procedure is the concentration of the drug that produces a percentage control A540 midway between the saturation, and zero-effect plateaus.

pIC50: −log10 of the molar value.

Sequence of B-RAF (P15056 whole entry): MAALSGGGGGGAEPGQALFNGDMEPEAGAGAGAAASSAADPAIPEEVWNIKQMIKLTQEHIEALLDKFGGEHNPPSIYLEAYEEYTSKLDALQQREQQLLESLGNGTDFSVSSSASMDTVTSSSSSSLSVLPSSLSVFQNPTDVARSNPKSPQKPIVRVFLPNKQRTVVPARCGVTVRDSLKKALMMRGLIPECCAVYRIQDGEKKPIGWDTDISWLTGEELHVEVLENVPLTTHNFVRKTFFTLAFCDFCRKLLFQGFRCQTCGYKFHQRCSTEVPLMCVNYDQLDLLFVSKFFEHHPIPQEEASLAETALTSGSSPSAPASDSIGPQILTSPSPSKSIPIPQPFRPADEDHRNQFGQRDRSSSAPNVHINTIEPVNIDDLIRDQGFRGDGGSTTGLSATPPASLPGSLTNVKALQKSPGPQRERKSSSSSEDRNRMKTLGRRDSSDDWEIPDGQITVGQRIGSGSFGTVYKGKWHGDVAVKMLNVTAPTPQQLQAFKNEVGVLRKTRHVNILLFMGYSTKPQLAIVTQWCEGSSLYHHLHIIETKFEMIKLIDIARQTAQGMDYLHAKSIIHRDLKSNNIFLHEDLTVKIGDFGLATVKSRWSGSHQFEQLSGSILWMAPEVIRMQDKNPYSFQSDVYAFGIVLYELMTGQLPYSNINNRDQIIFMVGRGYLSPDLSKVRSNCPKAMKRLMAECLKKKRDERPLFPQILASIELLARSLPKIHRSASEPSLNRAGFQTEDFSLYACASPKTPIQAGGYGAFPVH

`CC(C)(C)c1cc(NC(=O)Nc2ccc(Oc3ccnc4[nH]c(=O)[nH]c34)cc2)n(-c2ccc(F)cc2)n1` [XX-04, 1-[5-tert-Butyl-2-(4-fluoro-phenyl)-2H-pyrazol-3-yl]-3-[4-(2-oxo-2,3-dihydro-1H-imidazo[4,5-b]pyridin-7-yloxy)-phenyl]urea]: the pIC50 on B-RAF was 6.62. In assay [1], this molecule had a GI50 of 2720 nM.

For the molecule `Cc1ccc(-n2nc(C(C)(C)C)cc2NC(=O)Nc2ccc(Oc3ccnc4[nH]c(=O)n(C)c34)c3ccccc23)cc1` [BB-02, 1-(1-N-p-tolyl-3-tert-butyl-pyrazol-5-yl)-3-(4-(2-oxo-2,3-dihydro-1-N-methyl-1H-imidazo[4,5-b]pyridin-7-yl-oxy)naphthalen-1-yl)urea], the pIC50 at B-RAF was 5.64. Besides, in assay [1], growth was halved (GI50) at 1680 nM.

As to `CC(C)(C)c1cc(NC(=O)Nc2ccc(Oc3ccnc4[nH]c(=O)[nH]c34)cc2)n(-c2ccccc2)n1` [XX-01, 1-(5-Tert-butyl-2-phenyl-2H-pyrazol-3-yl)-3-[4-(2-oxo-2,3-dihydro-1H-imidazo[4,5-b]pyridin-7-yloxy)-phenyl]-urea], the pIC50 on B-RAF is 7.03. Besides, the GI50 in assay [1] was 840 nM.

Take `Cn1c(=O)[nH]c2nccc(Oc3ccc(NC(=O)Nc4cc(C(C)(C)C)nn4-c4ccccc4)c4ccccc34)c21` [BB-01, 1-(3-Tert-butyl-1-phenyl-1H-pyrazol-5-yl)-3-(4-(1-methyl-2-oxo-2,3-dihydro-1H-imidazo[4,5-b]pyridin-7-yloxy)naphthalen-1-yl)urea]: at B-RAF, the pIC50 is 6.60. Moreover, the GI50 in assay [1] came to 1600 nM.

In the case of `Cn1c(=O)[nH]c2nccc(Oc3ccc(NC(=O)Nc4cc(C(C)(C)C)nn4-c4ccccc4)c(F)c3)c21` [AA-01, 1-(3-Tert-butyl-1-phenyl-1H-pyrazol-5-yl)-3-(2-fluoro-4-(1-N-methyl-2-oxo-2,3-dihydro-1H-imidazo[4,5-b]pyridin-7-yloxy)phenyl)urea], the negative-log IC50 (pIC50) at B-RAF was 6.57. Further, in assay [1], the GI50 came to 167 nM.

Take `Cn1c(=O)n(C)c2c(Oc3ccc(NC(=O)Nc4cc(C(C)(C)C)nn4-c4ccccc4)c(F)c3)ccnc21` [XX-03, 1-(3-Tert-butyl-1-phenyl-1H-pyrazol-5-yl)-3-(4-(1,3-dimethyl-2-oxo-2,3-dihydro-1H-imidazo[4,5-b]pyridin-7-yloxy)-2-fluorophenyl)urea]: the pIC50 at B-RAF is 5.96. This molecule also came in with a GI50 in assay [1] of 6830 nM.

Turning to `Cc1ccc(-n2nc(C(C)(C)C)cc2NC(=O)Nc2ccc(Oc3ccnc4[nH]c(=O)n(C)c34)cc2)cc1` [XX-02, 1-(1-N-p-tolyl-3-tert-butyl-pyrazol-5-yl)-3-(4-(2-oxo-2,3-dihydro-1-N-methyl-1H-imidazo[4,5-b]pyridin-7-yl-oxy)phenyl)urea], the pIC50 on B-RAF was 6.70. This molecule also registered a GI50 in assay [1] of 450 nM.

(Values after patent publication US9120789B2, “1-(5-tert-butyl-2-phenyl-2H-pyrazol-3-yl)-3-[2-fluoro-4-(1-methyl-2-oxo-2,3-dihydro-1H-imidazo[4,5-b]pyridin-7-yloxy)-phenyl]-urea and related compounds and their use in therapy” (CANCER RESEARCH TECHNOLOGY LIMITED, priority 2010, dated 2015).)
